Data as given in the SangsterLogP compilation.

Row | SMILES | logP
1 | COc1cc(C(=O)OC2N=C(c3ccccc3)c3cc(Cl)ccc3NC2=O)cc(OC)c1OC (stereo not drawn) | 3.75
2 | O=C(O)CCC(=O)OC1N=C(c2ccccc2)c2cc(Cl)ccc2NC1=O (stereo not drawn) | 1.5
3 | CCN(CC)CCN1C(=O)C(O)N=C(c2ccccc2F)c2cc(Cl)ccc21 (stereo not drawn) | 1.89
4 | CNC(=O)N1C(=O)CN=C(c2ccccc2)c2cc([N+](=O)[O-])ccc21 | 1.76
5 | O=C1CN=C(c2ccccc2)c2cc(Cl)ccc2N1CC(F)(F)F | 3.97
6 | O=C1C(O)N=C(c2ccccc2)c2cc(Cl)ccc2N1CCO (stereo not drawn) | 1.53
7 | CC(=O)OC1N=C(c2ccccc2)c2cc(Cl)ccc2N(CCO)C1=O (stereo not drawn) | 2.45
8 | O=C1C(O)N=C(c2ccccc2F)c2cc(Cl)ccc2N1CCO (stereo not drawn) | 1.52
9 | CC(=O)OCCN1C(=O)C(OC(C)=O)N=C(c2ccccc2)c2cc(Cl)ccc21 (stereo not drawn) | 2.74
10 | CCN(CC)CCN1C(=O)C(O)N=C(c2ccccc2)c2cc(Cl)ccc21 (stereo not drawn) | 1.7
11 | CCOC1N=C(c2ccccc2)c2cc(Cl)ccc2N(CCCl)C1=O (stereo not drawn) | 3.53
12 | O=C(O)CCC(=O)OCCN1C(=O)C[N+]([O-])=C(c2ccccc2)c2cc(Cl)ccc21 | 0.36
13 | CN1C(=O)C(O)N=C(c2ccccc2Cl)c2cc(Cl)ccc21 (stereo not drawn) | 2.5
14 | O=C1C(O)N=C(c2ccccc2)c2cc(Cl)ccc2N1CCCO (stereo not drawn) | 1.68
15 | CCCC(CCC)C(=O)OC1N=C(c2ccccc2)c2cc(Cl)ccc2NC1=O (stereo not drawn) | 4.94
16 | CCOC1N=C(c2ccccc2)c2cc(Cl)ccc2N(CCO)C1=O (stereo not drawn) | 2.44
17 | O=C1C(O)N=C(c2ccccc2Cl)c2cc(Cl)ccc2N1CCO (stereo not drawn) | 2.16
18 | O=C1C[N+]([O-])=C(c2ccccc2)c2cc(Cl)ccc2N1CCO | 0.82
19 | CC(=O)OCCCN1C(=O)C(OC(C)=O)N=C(c2ccccc2)c2cc(Cl)ccc21 (stereo not drawn) | 3.08
20 | O=C1C(O)N=C(c2ccccc2)c2cc([N+](=O)[O-])ccc2N1CCO (stereo not drawn) | 0.55
21 | CCN(CC)CCN1C(=O)C(O)N=C(c2ccccc2Cl)c2cc(Cl)ccc21 (stereo not drawn) | 1.76
22 | O=C1Nc2ccc(Cl)cc2C(c2ccccc2F)=NC1O (stereo not drawn) | 1.81
23 | CN1C(=O)C(O)N=C(c2ccccc2F)c2cc(Cl)ccc21 (stereo not drawn) | 2.09
